Experimental data: ChEMBL document CHEMBL5726902, “Heterocyclic kinase inhibitors” (2019)

Biological target: Macrophage colony-stimulating factor 1 receptor (Homo sapiens, UniProt P07333)
Assay: In Vitro CSF-1R Kinase Activity: The CSF-1R construct corresponds to recombinant human catalytic domain (aa 538-910), which was purchased from Invitrogen (cat #PV4092). CSF-1R was mixed with peptide substrate (biotin-TYR1, Sequence: Biotin-(Ahx)-GAEEEIYAAFFA-COOH, 4 μM final) at varying inhibitor concentrations in reaction buffer: 50 mM MOPSO pH 6.5, 10 mM MgCl2, 2 mM MnCl2, 2.5 mM DTI, 0.01% BSA, 0.1 mM Na3VO4 and 0.1 mM ATP. After about 60 min incubation at rt, the reaction was quenched by addition of EDTA (final concentration: 100 mM) and developed by addition of detection reagents (final approximate concentrations: 30 mM HEPES pH 7.0, 0.06% BSA, 0.006% Tween-20, 0.24 M KF, 80 ng/mL PT66K (europium labeled anti-phosphotyrosine antibody cat #61T66KLB Cisbio, Bedford, Mass.) and 0.6 μg/mL SAXL (Phycolink streptavidin-allophycocyanin acceptor, cat #PJ25S, Prozyme, San Leandro, Calif.). The developed reaction was incubated in the dark for about 60 min at rt, then read via a time-resolved fluorescence detector (Rubystar, BMG) using a 337 nm laser for excitation and monitoring emission wavelength at 665 nm. Within the linear range of the assay, the observed signal at 665 nm was directly related to phosphorylated product and can be used to calculate the IC50 values.

Macrophage colony-stimulating factor 1 receptor, sequence (P07333 whole entry, the tested form may be a part): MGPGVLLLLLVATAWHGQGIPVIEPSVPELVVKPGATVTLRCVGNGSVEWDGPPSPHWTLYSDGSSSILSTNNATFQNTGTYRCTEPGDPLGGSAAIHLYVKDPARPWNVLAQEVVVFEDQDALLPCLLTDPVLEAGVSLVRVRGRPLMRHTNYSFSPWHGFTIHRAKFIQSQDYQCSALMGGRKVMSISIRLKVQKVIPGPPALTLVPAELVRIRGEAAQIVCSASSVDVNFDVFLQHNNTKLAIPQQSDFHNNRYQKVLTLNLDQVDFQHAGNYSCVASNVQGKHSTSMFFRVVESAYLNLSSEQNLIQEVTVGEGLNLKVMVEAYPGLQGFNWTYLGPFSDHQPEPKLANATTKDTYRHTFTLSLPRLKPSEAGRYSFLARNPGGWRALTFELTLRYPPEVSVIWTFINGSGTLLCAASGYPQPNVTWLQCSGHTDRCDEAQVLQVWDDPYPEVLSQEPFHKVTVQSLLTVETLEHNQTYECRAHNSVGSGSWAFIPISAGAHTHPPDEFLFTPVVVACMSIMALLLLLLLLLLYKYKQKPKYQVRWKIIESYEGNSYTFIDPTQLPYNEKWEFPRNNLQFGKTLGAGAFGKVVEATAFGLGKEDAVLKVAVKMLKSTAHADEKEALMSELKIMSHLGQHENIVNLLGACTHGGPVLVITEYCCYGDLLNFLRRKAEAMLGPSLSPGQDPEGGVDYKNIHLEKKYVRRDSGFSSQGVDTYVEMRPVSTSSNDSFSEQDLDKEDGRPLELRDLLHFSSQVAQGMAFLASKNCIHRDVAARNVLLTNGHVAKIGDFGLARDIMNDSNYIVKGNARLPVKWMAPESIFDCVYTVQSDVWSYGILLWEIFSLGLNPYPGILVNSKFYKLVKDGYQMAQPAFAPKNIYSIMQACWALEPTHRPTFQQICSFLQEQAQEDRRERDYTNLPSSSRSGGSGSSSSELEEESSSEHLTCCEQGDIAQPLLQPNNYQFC

SMILES | IC50 [nM]
O[C@H]1CC[C@@H](n2cc(Nc3nc(C4CCCCC4)cn4ncnc34)cn2)CC1 | < 100
CC1(C)CC(n2cc(Nc3nc(C4CCCCC4)cn4ncnc34)cn2)CC(C)(C)O1 | < 100
O[C@H]1CC[C@H](n2cc(Nc3nc(C4CCCCC4)cn4ncnc34)cn2)CC1 | < 100
